Measured values reported in US20170196859A1, “PHARMACEUTICAL COMPOSITION COMPRISING PYRAZINE CARBOXAMIDE COMPOUND AS ACTIVE INGREDIENT” (Astellas Pharma Inc., priority 2014, published 2017).

Key:
[1] = test system: human mantle cell lymphoma cell line Rec-1 cells; experiment: Proliferation inhibition, Rec-1 cells (CellTiter-Glo); format: cell-based; conditions: Rec1, 72 h, 3 days culture
Experimental: Rec-1 is a cell line originated from human mantle cell lymphoma, a kind of B-cell malignant neoplasm, and the BTK expression and phosphorylation have been confirmed (Cell Oncol. 2011; 34:141-153). The human mantle cell lymphoma cell line Rec-1 cells (American Type Culture Collection, CRL-3004) cultured in RPMI1640 medium (Sigma) containing 10% bovine serum were seeded into 96 well plates. On the next day, DMSO solutions of the test compound B at final concentrations from 1 nM to 10 μM or only DMSO (DMSO group) were added thereto to culture the cells at 37° C. in 5% CO2 for 3 days. Thereafter, the cell number was measured using a cell counting reagent (CellTiter-Glo (registered trademark) Luminescent Cell Viability Assay (Promega)). The cell proliferation inhibition rate was calculated as the measured value in the DMSO group set as 0% inhibition and the measured value in the well only with the medium on which the cells have not been seeded set as 100% inhibition.

[2] = test system: human histiocytic lymphoma cell line U-937 cells; experiment: Proliferation inhibition, U-937 cells (CellTiter-Glo); format: cell-based; conditions: U-937, 72 h, 3 days culture
Experimental: U-937 is a cell line originated from human histiocytic lymphoma and the BTK expression has been confirmed (J. Immunol. 1994; 152(2):557-565). The human histiocytic lymphoma cell line U-937 cells (Sumitomo Dainippon Pharma Co., Ltd.) cultured in RPMI1640 medium (Sigma) containing 10% bovine serum were seeded into 96 well plates. On the same day, DMSO solutions of the test compound B at a final concentrations from 1 nM to 10 μM or only DMSO (DMSO group) were added thereto to culture the cells at 37° C. in 5% CO2 for 3 days. Thereafter, the cell number was measured using a cell counting reagent (CellTiter-Glo (registered trademark) Luminescent Cell Viability Assay (Promega)). The cell proliferation inhibition rate was calculated as the measured value in the DMSO group set as 0% inhibition and the measured value in the well only with the medium on which the cells have not been seeded set as 100% inhibition.

[3] = test system: human diffuse large B-cell lymphoma cell line OCI-Ly10 cells; experiment: Proliferation inhibition, OCI-Ly10 cells (CellTiter-Glo); format: cell-based; conditions: OCI-Ly10, 72 h, 3 days culture, 100% inhibition = value on day of cell seeding
Experimental: OCI-Ly10 is a cell line originated from human diffuse large B-cell lymphoma, which is a B-cell malignant neoplasm, and the BTK dependency has been confirmed (Nature. 2010; 463:88-92). The human diffuse large B-cell lymphoma cell line OCI-Ly 10 cells (University Health Network) cultured in an Iscove's Modified Dulbecco's Medium (Sigma) containing a 20% bovine serum were seeded into 96 well plates. On the same day, DMSO solutions of the test compound B at a final concentrations from 0.1 nM to 1 μM or only DMSO (DMSO group) were added thereto to culture the cells at 37° C. in 5% CO2 for 3 days. Thereafter, the cell number was measured using a cell counting reagent (CellTiter-Glo (registered trademark) Luminescent Cell Viability Assay (Promega)). The cell proliferation inhibition rate was calculated by the measured value in the DMSO group set as 0% inhibition and the measured value in the DMSO group on day of cell seeding set as 100% inhibition.

BTK kinase = BTK kinase (Homo sapiens, UniProt Q06187); experiment: BTK kinase inhibitory activity (QSS Assist BTK_MSA kit); format: biochemical; conditions: 30 min preincubation, ATP 1 mM, concentration as compound A free form
Experimental: The BTK kinase inhibitory activity was evaluated using QSS Assist BTK_MSA kit (Carna Bioscience).
The test compound B was dissolved in dimethyl sulfoxide (DMSO) to prepare a solution at a 100-fold concentration as compared to the final concentration. The solution was also 25-fold diluted with an appurtenant assay buffer to obtain a test compound B solution. In addition, BTK kinase appurtenant to the kit was used for the reaction.
5 μL of the test compound B solution at a 4-fold concentration, prepared using the aforementioned assay buffer, and 10 μL of a BTK kinase solution at a 2-fold concentration were mixed within a well of a 384 well plate, and left to undergo a reaction at room temperature for 30 minutes. Continuously, 5 μL of a substrate peptide/ATP/MgCl2 solution at a 4-fold concentration was added thereto to perform the reaction at room temperature for 1 hour. The substrate peptide was used at a final concentration of 1000 nM, ATP at a final concentration of 1 mM, and MgCl2 at a final concentration of 5 mM. Thereafter, 60 μL of an appurtenant termination buffer was added thereto to stop the reaction. The BTK kinase activity was calculated by quantifying a product conversion ratio obtained from the substrate peptide peak height and the product (phosphorylated substrate peptide) peak height with LabChip EZ Reader II (PerkinElmer). […]

[4] = test system: human acute megakaryocytic leukemia cell line CMK cells; experiment: Proliferation inhibition, CMK cells (CellTiter-Glo); format: cell-based; conditions: 96 h, 4 days culture
Experimental: CMK is a cell line originated from human acute megakaryocytic leukemia and the activation of JAK 3 has been confirmed (Cancer Cell. 2006; 10:65-75). The human acute megakaryocytic leukemia cell line CMK cells (DSMZ, ACC392) cultured in RPMI1640 medium (Sigma) containing 20% bovine serum and 2 mM of glutamine were inoculated into 96 well plates. On the same day, DMSO solutions of the test compound B at final concentrations from 1 nM to 10 μM or only DMSO (DMSO group) were added thereto to culture the cells at 37° C. in 5% CO2 for 4 days. Thereafter, the cell number was measured using a cell counting reagent (CellTiter-Glo (registered trademark) Luminescent Cell Viability Assay (Promega)). The cell proliferation inhibition rate was calculated as the measured value in the DMSO group set as 0% inhibition and the measured value in the well only with the medium on which the cells have not been seeded set as 100% inhibition.

Chain of BTK kinase (Q06187 whole entry): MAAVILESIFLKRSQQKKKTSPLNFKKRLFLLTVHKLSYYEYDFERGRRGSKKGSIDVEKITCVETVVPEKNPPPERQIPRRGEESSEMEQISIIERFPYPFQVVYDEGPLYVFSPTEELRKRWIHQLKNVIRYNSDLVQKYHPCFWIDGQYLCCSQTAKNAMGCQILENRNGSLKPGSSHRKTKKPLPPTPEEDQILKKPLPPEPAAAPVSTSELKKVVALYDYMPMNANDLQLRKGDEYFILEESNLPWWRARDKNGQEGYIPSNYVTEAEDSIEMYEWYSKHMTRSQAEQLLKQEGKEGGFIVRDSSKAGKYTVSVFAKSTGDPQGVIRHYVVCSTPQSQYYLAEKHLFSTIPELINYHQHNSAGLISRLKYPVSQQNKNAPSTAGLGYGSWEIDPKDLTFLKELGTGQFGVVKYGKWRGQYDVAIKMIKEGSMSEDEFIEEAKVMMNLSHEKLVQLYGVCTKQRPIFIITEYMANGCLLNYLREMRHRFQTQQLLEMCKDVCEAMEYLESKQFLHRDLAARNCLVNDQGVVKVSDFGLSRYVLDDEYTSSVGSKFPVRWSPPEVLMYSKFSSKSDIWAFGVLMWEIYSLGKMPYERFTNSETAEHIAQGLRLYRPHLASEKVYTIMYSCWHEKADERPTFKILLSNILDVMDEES

IC50 [1]: 68 nM
IC50 [2]: 63 nM
IC50 (BTK kinase): 0.17 nM
IC50 [4]: 110 nM
Structure (SMILES): C=CC(=O)N1CC[C@@H](Oc2nc(Nc3ccc(N4CCC(N5CCN(C)CC5)CC4)cc3)c(C(N)=O)nc2CC)C1 [test compound B, 5-{[(3R)-1-acryloylpyrrolidin-3-yl]oxy}-6-ethyl-3-({4-[4-(4-methylpiperazin-1-yl)piperidin-1-yl]phenyl}amino)pyrazine-2-carboxamide monomethanesulfonate]
GI50 [3]: 1 nM
